For assay [1], the system named is phosphorylation of EGFR (Tyr1068) in NCI-H1975 cell line that harbors the EGFR L858R T790M mutations. In words: NCI-H1975 pEGFR AlphaLISA assay. As to conditions: 4-5 hours incubation, read-out: Ext pEGFR H1975. Format: cell-based. As to the method:
Inhibitory effects of the compounds of the disclosure were evaluated in cellular assays that measure level of intracellular phosphorylation of EGFR in NCI-H1975 cell line that harbors the EGFR L858R T790M mutations (ATCC, CRL-5908) using AlphaLISA sureFire ultra p-EGFR (Tyr1068) assay kit (PerkinElmer, ALSU-PEGFR-A50K). The NCI-H1975 cells were seeded at 12.5K/well in 22 μL into 384 well opti plate (PerkinElmer, 6007299) and adhering overnight at 37 C/5% CO2. On the next day, the test compounds and DMSO control were added into H1975 cell plate followed by incubation at 37 C/5% CO2 for 4-5 hours. The cells were then spin down in the 384-well plate and lysed with 10 μL of 1×AlphaLISA lysis buffer followed by shaking at 600 rpm for 10 minutes at room temperature. After that, 5 μL of an acceptor bead mix was added to each well followed by incubation at room temperature for 1.5-2 h in dark. Then 5 μL of a donor bead mix was added to each well followed by overnight incubation at room temperature in dark. On the next day, the plate was read at a compatible plate reader to obtain pEGFR signal. Percent of pEGFR inhibition was plotted against log concentration of compounds to generate IC50 values.

The target of the next assay is T1, EGFR (L858R T790M C797S) (Homo sapiens, UniProt P00533, C797S/L858R/T790M).
T1 construct: purchased SignalChem E10-122VG
T1 sequence (P00533 25-1210 T790M/C797S/L858R): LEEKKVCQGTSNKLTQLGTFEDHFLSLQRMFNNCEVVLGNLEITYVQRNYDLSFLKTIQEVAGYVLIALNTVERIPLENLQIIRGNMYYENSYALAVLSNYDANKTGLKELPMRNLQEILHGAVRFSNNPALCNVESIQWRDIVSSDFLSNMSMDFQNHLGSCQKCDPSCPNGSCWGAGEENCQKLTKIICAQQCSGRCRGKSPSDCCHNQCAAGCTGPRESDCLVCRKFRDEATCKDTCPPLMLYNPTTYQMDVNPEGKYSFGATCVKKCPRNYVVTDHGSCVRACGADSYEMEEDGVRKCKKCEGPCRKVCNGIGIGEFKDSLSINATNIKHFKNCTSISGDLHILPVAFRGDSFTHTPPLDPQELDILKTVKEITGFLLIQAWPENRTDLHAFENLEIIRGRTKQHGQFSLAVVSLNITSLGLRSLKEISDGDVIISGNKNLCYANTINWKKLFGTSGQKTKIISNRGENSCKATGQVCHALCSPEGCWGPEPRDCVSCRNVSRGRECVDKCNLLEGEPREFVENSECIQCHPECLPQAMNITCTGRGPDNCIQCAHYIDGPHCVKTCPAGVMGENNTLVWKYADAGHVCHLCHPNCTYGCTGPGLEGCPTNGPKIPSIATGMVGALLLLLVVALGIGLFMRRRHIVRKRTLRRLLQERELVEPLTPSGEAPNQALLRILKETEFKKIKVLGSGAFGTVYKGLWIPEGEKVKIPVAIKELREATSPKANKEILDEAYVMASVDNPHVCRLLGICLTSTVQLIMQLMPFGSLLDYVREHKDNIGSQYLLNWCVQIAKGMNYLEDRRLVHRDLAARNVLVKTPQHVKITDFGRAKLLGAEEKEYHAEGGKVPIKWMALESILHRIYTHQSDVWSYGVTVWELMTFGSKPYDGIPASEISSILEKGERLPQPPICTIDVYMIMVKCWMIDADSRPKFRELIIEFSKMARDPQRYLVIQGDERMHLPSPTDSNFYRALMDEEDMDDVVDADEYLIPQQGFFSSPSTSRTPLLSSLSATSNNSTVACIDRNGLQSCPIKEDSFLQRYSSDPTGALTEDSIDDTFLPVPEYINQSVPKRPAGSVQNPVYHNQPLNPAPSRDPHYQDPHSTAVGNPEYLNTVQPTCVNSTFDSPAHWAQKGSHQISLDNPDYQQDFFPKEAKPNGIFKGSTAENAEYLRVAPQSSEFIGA
In words: Biochemical EGFR inhibition assay (Caliper mobility shift), EGFR LRTMCS mutant. The note with it: inhibitory activity against EGFR LRTMCS mutant; apparent IC50; read-out: Ext Enz LRTMCS. As to the method:
Reactions proceeded until between 10% to 20% total peptides were phosphorylated at room temperature (25° C.) and were terminated with 35 mM 2,2′,2″,2′″-(ethane-1,2-diyldinitrilo)tetraacetic acid (EDTA). Product was detected using the Caliper mobility shift detection method where the phosphorylated peptide (product) and substrate were electrophoretically separated and measured. Percent activity was plotted against log concentration of compound and points to generate an apparent IC50.

The mark [2] stands for this setting: Homo sapiens, NCI-H1975, inhibition of phosphorylation of mutant EGFR in NCI-H1975 cells.
Setting [3] is: inhibition of phosphorylation of mutant EGFR in NCI-H1975 cells.

This passage reports IC50 results from patent US12172983B2, “EGFR inhibitors” (Blueprint Medicines Corporation, priority 2019, dated 2024).

Where two headings read alike, the source gives them in different places.

As to `CC(C)c1ccc(N2CC(CS(C)(=O)=O)C2)c2cnc(Nc3ccnc(N4C[C@@H](F)[C@@H](O)[C@](C)(F)C4)n3)cc12` (single isomer, unassigned) [Compound 156, (3R,4R,5R)-3,5-difluoro-1-[4-({8-[3-(methanesulfonylmethyl)azetidin-1-yl]-5-(propan-2-yl)isoquinolin-3-yl}amino)pyrimidin-2-yl]-3-methylpiperidin-4-ol or (3S,4S,5S)-3,5-difluoro-1-[4-({8-[3-(methanesulfonylmethyl)azetidin-1-yl]-5-(propan-2-yl)isoquinolin-3-yl}amino)pyrimidin-2-yl]-3-methylpiperidin-4-ol], the values for the IC50 (in assay [1] (setting [2]); on EGFR (L858R T790M C797S)) were no more than 10 nM and no more than 15 nM, respectively.

With `COC1CCN(c2nccc(Nc3cc4c(C(C)C)cnc(N5C[C@H](CS(C)(=O)=O)[C@H]5C)c4cn3)n2)CC1` [Compound 50, 8-[(2R,3S)-3-(methanesulfonylmethyl)-2-methylazetidin-1-yl]-N-[2-(4-methoxypiperidin-1-yl)pyrimidin-4-yl]-5-(propan-2-yl)-2,7-naphthyridin-3-amine], the values for the IC50 (in assay [1] (setting [2]); on EGFR (L858R T790M C797S)) were no more than 10 nM and no more than 15 nM, respectively.

Regarding `CC(C)c1ccc(N2CC(CS(C)(=O)=O)C2)c2cnc(Nc3ccnc(N4CC[C@](C)(O)[C@](C)(F)C4)n3)cc12` (single isomer, unassigned) [Compound 113, (3R,4S)-3-fluoro-1-[4-({8-[3-(methanesulfonylmethyl)azetidin-1-yl]-5-(propan-2-yl)isoquinolin-3-yl}amino)pyrimidin-2-yl]-3,4-dimethylpiperidin-4-ol or (3S,4R)-3-fluoro-1-[4-({8-[3-(methanesulfonylmethyl)azetidin-1-yl]-5-(propan-2-yl)isoquinolin-3-yl}amino)pyrimidin-2-yl]-3,4-dimethylpiperidin-4-ol], the figures for the IC50 (in assay [1] (setting [2]); on EGFR (L858R T790M C797S)) were 10.1 to 20 nM and no more than 15 nM, respectively.

Turning to `COC1(CN)CCN(c2nccc(Nc3cc4c(C(C)C)ccc(N5C[C@H](CS(C)(=O)=O)[C@H]5C)c4cn3)n2)CC1` [Compound 169, N-{2-[4-(aminomethyl)-4-methoxypiperidin-1-yl]pyrimidin-4-yl}-8-[(2R,3S)-3-(methanesulfonylmethyl)-2-methylazetidin-1-yl]-5-(propan-2-yl)isoquinolin-3-amine], the IC50 in assay [1] (setting [2]) was in the range of 30.1 to 50 nM; at EGFR (L858R T790M C797S) it was 15.1 to 20 nM.

Take `[2H]C([2H])([2H])O[C@H]1[C@@H](O)CN(c2nccc(Nc3cc4c(C(C)C)ccc(N5C[C@H](CS(C)(=O)=O)[C@H]5C)c4cn3)n2)CC1(F)F` (single isomer, unassigned) [Compound 314, (3S,4S)-5,5-difluoro-1-(4-((5-isopropyl-8-((2R,3S)-2-methyl-3-((methylsulfonyl)methyl)azetidin-1-yl)isoquinolin-3-yl)amino)pyrimidin-2-yl)-4-(^2H3)methoxypiperidin-3-ol or (3R,4R)-5,5-difluoro-1-(4-((5-isopropyl-8-((2R,3S)-2-methyl-3-((methylsulfonyl)methyl)azetidin-1-yl)isoquinolin-3-yl)amino)pyrimidin-2-yl)-4-(^2H3)methoxypiperidin-3-ol]: the IC50 in assay [1] (setting [3]) was no more than 10 nM; at EGFR (L858R T790M C797S), 30.1 to 100 nM.

As to `CN[C@H]1CCN(c2nccc(Nc3cc4c(C(C)C)ccc(N5C[C@H](CS(C)(=O)=O)[C@H]5C)c4cn3)n2)CC1(F)F` (single isomer, unassigned) [Compound 310, N-{2-[(4R)-3,3-difluoro-4-(methylamino)piperidin-1-yl]pyrimidin-4-yl}-8-[(2R,3S)-3-(methanesulfonylmethyl)-2-methylazetidin-1-yl]-5-(propan-2-yl)isoquinolin-3-amine or N-{2-[(4S)-3,3-difluoro-4(methylamino)piperidin-1-yl]pyrimidin-4-yl}-8-[(2R,3S)-3-(methanesulfonylmethyl)-2-methylazetidin-1-yl]-5-(propan-2-yl)isoquinolin-3-amine], the IC50 is no more than 10 nM in assay [1] (setting [3]) and no more than 15 nM at EGFR (L858R T790M C797S).
